Data from patent publication US7781580B2, “Stilbene derivatives as new cancer therapeutic agents” (Virginia Commonwealth University, priority 2007, dated 2010).

Key:
[1] = tested on: Tubulin (>99% pure); test: tubulin polymerization assay (OD 340 nm); assay type: biochemical; settings: OD340 nm; nocodazole and paclitaxel 10 μM
[2] = tested on: MDA-MB231 cells; test: immunofluorescent staining of tubulin, MDA-MB231; assay type: cell-based; settings: CA4 10 nM, stilbene 4a 100 nM, vincristine 100 nM, 5b 3 μM; 16 hours
Source text: Nuclei were stained with 4′,6-diamidino-2-phenylindole (DAPI). Control cells show the reticular pattern of the microtubule network.

[3] = tested on: MDA-MB231 breast cancer cells; test: cell cycle analysis, MDA-MB231; assay type: cell-based; settings: 16 hours
Procedure: Cells were treated with various concentrations of stilbene 4a or CA4 for 16 hours followed by PI staining and FACscan analysis. […] A unique feature of stilbene 4a was noted when cells were treated with 30 nM.
Due to the structural similarity between stilbene 4a and CA4, we investigated the difference in the biological activity of these two compounds in MDA-MB231 breast cancer cells and their Chk2−/− derivatives. […] MDA-MB231 cells were treated with 10 nM stilbene 4a or 1 nM CA4. […] However, a difference in cell cycle change was observed following treatment with 30 nM of stilbene 4a versus 3 nM of CA4. […] This was also the case for cells treated with 100 nM stilbene 4a. A significant subG1/0 population was also noted. […] One possible effect could be a DNA damage response, which is a common mechanism of multiple chemotherapeutic agents but not one of pure microtubule-interfering agents such a paclitaxel or vincristine. […] We then obtained conditional Chk1−/− and Chk2−/− cells, which were derived from the same MDA-MB231 cells for the same flow cytometry analysis. […] In contrast, Chk2−/− cells were more sensitive to stilbene 4a. […] This mechanism is not obvious in higher drug concentrations at which the G2 arrest from microtubule interference is dominant. Therefore, in addition to their microtubule interfering effect, stilbenes have another mechanism to induce cell death. Thus, the use of a Chk2 inhibitor in combination with stilbenes may be a viable approach to enhancing the beneficial therapeutic effects of stilbenes.

[4] = tested on: UCI101 ovarian cancer cells; test: Alamar Blue cell growth inhibition, UCI101; assay type: cell-based; settings: UCI101, 48 hours
How it was run: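 UCI101 cells at 50% confluence treated 48 h in triplicate with compound (0–10 μM series) or 0.1% DMSO vehicle as 100% control. Alamar Blue added at 1/10 volume for 2 h; absorbance read at 570 and 600 nm, percent growth inhibition from the manufacturer's formula.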

[5] = tested on: UCI101 cells; test: phospho-histone 3B mitotic marker staining; assay type: cell-based
Procedure: (a) In vitro sensitivity of UCI101 cells toward three potential stilbene prodrugs, 5a-c, was tested in 96-well plates using Alamar Blue™ assays to determine cell growth inhibition. […] (b) 5b induces cell cycle change and apoptosis in UCI101 cells. Cells were incubated with 5b at 1, 3, 10 μM for 16 hours followed by PI staining and flow cytometry analysis. A subG0/1 population, representing apoptotic cells, appeared along with a decrease of the G1/G2 ratio after cells were treated with 3 μM 5b. Higher concentration (10 μM) of 5b completely killed cells, as was the case with stilbene 4a at […]. (c) Cells treated with stilbene 4a and 5b were stained with phospho-histone 3B, a mitotic marker. The positive signals of phospho-histone 3B were shown in green and nuclei were stained with DAPI in blue. […] (d) In vivo efficacy of 5b compared with stilbene 4a. Nude mice were injected with UCI101 ovarian cancer cells and treated with 7 doses of 5b,c or stilbene 4a every 2-3 days. Tumor volume was calculated and plotted against days.
The in vitro efficacy of these three compounds was tested in UCI101 cells in 96-well plate format and stained with Alamar blue™, The growth suppression was calculated as was done similarly to other test compounds. […] A dose response was then performed with various concentrations of 5b in vitro. […]

## COc1cc(/C=C\c2ccc(OC)c(N)c2)cc(OC)c1 [4a, (Z)-5-[2-(3,5-Dimethoxy-phenyl)-vinyl]-2-methoxy-phenylamine]
[1]
  effect on tubulin polymerization: suppressed polymerization in a dose-dependent manner
[2]
  microtubule pattern: did not completely disrupt microtubule formation
[3]; 30 nM
  cell cycle change at 30 nM: induced some degree of G2 arrest, but the ratio of G1/G2 did not reverse
[3]
  cell cycle change at 10 nM stilbene 4a or 1 nM CA4: No change was observed
[4]
  relative potency / activity: about equal in their potency
[5]
  phospho-histone 3B positive cells: dramatic increase in positive cells
